# Data as given in US10426800B2, “Adipose tissue-derived stem cells for veterinary use” (CELL4VET CORPORATION, priority 2008, dated 2019).
# Key:
# Assay type in all cases: cell-based, rat
# ADSC = assay: EdU labeling of ADSC in vitro
# Method: FIG. 9 depicts dosage effect. EdU was added to ADSC at 0, 10, 20, and 50 μM. Cellular location was identified by DAPI staining of the nucleus (which would be blue if color photos were used). EdU was detected by Alexa 594 (which would be red if color photos were used).
# FIG. 10 show the results of a time-course study. ADSC were labeled with 10 μM EdU and then split at 1 day, 4 days, 7 days, 14 days, and 21 days. […] Higher magnification (1000×) of cells at day 21 is shown in panel C.
# ADSCs were grown on glass coverslips in DMEM supplemented with 10% bovine calf serum, penicillin, and streptomycin. For dosage effect, EdU was added to the culture media at 0, 10, 20 and 50 μM. Twenty-four hours later, cells were washed with PBS followed by addition of regular culture media (FIG. 9). For time-course study, ADSC were labeled with 10 μM EdU and then split at 1 day, 4 days, 7 days, 14 days and 21 days (FIG. 10).
# After methanol fixation, cells were washed twice with PBS and then incubated in 3% BSA in PBS followed by 0.5% Triton® X-100 in PBS for 20 minutes at room temperature. The cells were then incubated with freshly made Click-it reaction cocktail (Invitrogen) for 30 minutes at room temperature in the dark. Cells were counterstained with DAPI, mounted in standard mounting media and imaged by fluorescence microscopy.
# RADSC-1 cells [1] = assay: Effect of FGFR inhibitor on ADSC endothelial differentiation (LDL-uptake); details: EGM2 or FGF2/vitamin C-supplemented EBM2, in the presence of PD173074
# Method: RADSC-1 cells were grown in EGM2 or EBM2 supplemented with FGF2 and vitamin C in the presence or absence of FGFR inhibitor PD173074. The cells were then assayed for LDL-uptake. […] RADSC-1 cells were also grown in VEGF/vitamin C-supplemented EBM2 for the purpose of excluding the involvement of VEGF signaling, as PD173074 is known to have a weak inhibitory effect on VEGF receptor. Experiments were repeated 3 times.
# RADSC-1 cells [2] = assay: LDL-uptake of ADSC grown in subtraction or addition EGM2/EBM2 media; details: for ADSC's LDL-uptake ability on omission of the factor from EGM2: one week in subtracted EGM2 medium; for ADSC's LDL-uptake ability in EBM2 supplemented with the factor: one week in addition medium
# Source text: Each partially supplemented EGM2 is indicated by the omitted factor; for example, “-FGF” denotes EGM2 without FGF2. Experiments were repeated 3 times.
# Experiments were repeated 3 times.
# EGM2 medium is supplied by the manufacturer in the form of a basal medium (EBM2) and individual vials of supplemental factors. […] Specifically, we prepared “subtraction” EGM2 media by omitting one supplemental factor at a time.
Compound,ADSC's LDL-uptake ability on omission of the factor from EGM2 (RADSC-1 cells [2]),also measured
"C#Cc1cn([C@H]2C[C@H](O)[C@@H](CO)O2)c(=O)[nH]c1=O [EdU, 5-ethynyl-2-deoxyuridine]",,"EdU signal in the positively labeled cells (ADSC; 10 μM EdU, 1 to 21 days, P<0.01): decreased with time; cells EdU-labeled (ADSC; EdU 10, 20, 50 μM, regardless of concentration): approximately 50%"
CCN(CC)CCCCNc1ncc2cc(-c3cc(OC)cc(OC)c3)c(NC(=O)NC(C)(C)C)nc2n1 [PD173074],,acquisition of LDL-uptake ability (RADSC-1 cells [1]): unable to do so
C[C@]12CCC(=O)C=C1CC[C@@H]1[C@@H]2[C@@H](O)C[C@@]2(C)[C@H]1CC[C@]2(O)C(=O)CO [hydrocortisone],essentially no effect,
O=C1O[C@H]([C@@H](O)CO)C(O)=C1O [vitamin C],greatly diminished,"ADSC's LDL-uptake ability in EBM2 supplemented with the factor (RADSC-1 cells [2]): still somewhat effective, but at a much reduced level"
"EGF: growth factor, supplemental factor of EGM2 medium",essentially no effect,
"FGF2: growth factor, supplemental factor of EGM2 medium",greatly diminished,"ADSC's LDL-uptake ability in EBM2 supplemented with the factor (RADSC-1 cells [2]): still effective, albeit at a reduced level"
VEGF,essentially no effect,
heparin,essentially no effect,
